Source: the NIST ThermoML archive (doi:10.1016/j.jct.2008.09.002)

What was measured:
[1] = xn = mol fraction of the nth substance listed; details: 101.3 kPa, Liquid, Vibrating tube method
[2] = molar heat capacity at constant pressure; xn = mol fraction of the nth substance listed; details: 101.3 kPa, Liquid, Small sample (50 mg) DSC
[3] = excess molar enthalpy (molar enthalpy of mixing); xn = mol fraction of the nth substance listed; details: 303.15 K, 101.3 kPa, Liquid, Calvet calorimetry

C[N+](=O)[O-] [nitromethane] + CCOS(=O)(=O)[O-].CCn1cc[n+](C)c1
Details	mass density, [1] [kg/m3]	molar heat capacity at constant pressure, [2] [J/K/mol]
293.15 K, x2 = 0.0513	1162.5	120.8
293.15 K, x2 = 0.0991	1176.4	134.3
293.15 K, x2 = 0.2013	1196.4	164
293.15 K, x2 = 0.3095	1209.6	195.4
293.15 K, x2 = 0.4073	1217.8	223.5
293.15 K, x2 = 0.5056	1223.9	–
293.15 K, x2 = 0.5489	1226.3	264
293.15 K, x2 = 0.5944	1228.3	–
293.15 K, x2 = 0.689	1232.1	304
293.15 K, x2 = 0.7805	1235.1	329.9
293.15 K, x2 = 0.8817	1237.9	358.6
293.15 K, x2 = 0.9398	1239.3	–
293.15 K, x2 = 0.9522	1239.6	–
298.15 K, x2 = 0.0513	1156.4	121.1
298.15 K, x2 = 0.0991	1170.9	134.7
298.15 K, x2 = 0.2013	1191.5	164.6
298.15 K, x2 = 0.3095	1205.1	196.1
298.15 K, x2 = 0.4073	1213.6	224.4
298.15 K, x2 = 0.5056	1220	–
298.15 K, x2 = 0.5489	1222.4	265.2
298.15 K, x2 = 0.5944	1224.5	–
298.15 K, x2 = 0.689	1228.4	305.5
298.15 K, x2 = 0.7805	1231.5	331.6
298.15 K, x2 = 0.8817	1234.4	360.5
298.15 K, x2 = 0.9398	1235.8	–
298.15 K, x2 = 0.9522	1236.2	–
303.15 K, x2 = 0.0513	1150.4	121.6
303.15 K, x2 = 0.0991	1165.3	135.3
303.15 K, x2 = 0.2013	1186.6	165.3
303.15 K, x2 = 0.3095	1200.7	196.9
303.15 K, x2 = 0.4073	1209.5	225.5
303.15 K, x2 = 0.5056	1216	–
303.15 K, x2 = 0.5489	1218.5	266.6
303.15 K, x2 = 0.5944	1220.7	–
303.15 K, x2 = 0.689	1224.7	307.2
303.15 K, x2 = 0.7805	1228	333.5
303.15 K, x2 = 0.8817	1230.9	362.6
303.15 K, x2 = 0.9398	1232.4	–
303.15 K, x2 = 0.9522	1232.7	–
308.15 K, x2 = 0.0513	1144.3	122.1
308.15 K, x2 = 0.0991	1159.7	135.9
308.15 K, x2 = 0.2013	1181.7	166
308.15 K, x2 = 0.3095	1196.2	197.8
308.15 K, x2 = 0.4073	1205.3	226.7
308.15 K, x2 = 0.5056	1212.1	–
308.15 K, x2 = 0.5489	1214.6	268.1
308.15 K, x2 = 0.5944	1216.9	–
308.15 K, x2 = 0.689	1221	308.9
308.15 K, x2 = 0.7805	1224.4	335.5
308.15 K, x2 = 0.8817	1227.5	364.8
308.15 K, x2 = 0.9398	1229	–
308.15 K, x2 = 0.9522	1229.3	–
313.15 K, x2 = 0.0513	1138.2	122.7
313.15 K, x2 = 0.0991	1154.2	136.6
313.15 K, x2 = 0.2013	1176.9	166.8
313.15 K, x2 = 0.3095	1191.8	198.7
313.15 K, x2 = 0.4073	1201.2	227.9
313.15 K, x2 = 0.5056	1208.2	–
313.15 K, x2 = 0.5489	1210.8	269.7
313.15 K, x2 = 0.5944	1213.1	–
313.15 K, x2 = 0.689	1217.4	310.9
313.15 K, x2 = 0.7805	1220.9	337.7
313.15 K, x2 = 0.8817	1224	367.1
313.15 K, x2 = 0.9398	1225.6	–
313.15 K, x2 = 0.9522	1225.9	–
318.15 K, x2 = 0.0513	1132.2	123.2
318.15 K, x2 = 0.0991	1148.6	137.2
318.15 K, x2 = 0.2013	1172	167.6
318.15 K, x2 = 0.3095	1187.4	199.7
318.15 K, x2 = 0.4073	1197.1	229.2
318.15 K, x2 = 0.5056	1204.2	–
318.15 K, x2 = 0.5489	1207	271.4
318.15 K, x2 = 0.5944	1209.3	–
318.15 K, x2 = 0.689	1213.8	312.9
318.15 K, x2 = 0.7805	1217.3	340
318.15 K, x2 = 0.8817	1220.6	369.6
318.15 K, x2 = 0.9398	1222.2	–
318.15 K, x2 = 0.9522	1222.5	–

[3]
Details	excess molar enthalpy [kcal/mol]
x2 = 0.1001	-0.0688
x2 = 0.1977	-0.116
x2 = 0.3075	-0.142
x2 = 0.4001	-0.154
x2 = 0.5071	-0.148
x2 = 0.6026	-0.131
x2 = 0.6953	-0.108
x2 = 0.8026	-0.0736
x2 = 0.8668	-0.05

C[N+](=O)[O-] [nitromethane] + CCn1cc[n+](C)c1.O=S(=O)([O-])C(F)(F)F
Details	mass density, [1] [kg/m3]	molar heat capacity at constant pressure, [2] [J/K/mol]
293.15 K, x2 = 0.0525	1186.8	119.2
293.15 K, x2 = 0.0981	1217.2	130.6
293.15 K, x2 = 0.2013	1266.6	157
293.15 K, x2 = 0.3063	1300.5	183.7
293.15 K, x2 = 0.4027	1323.1	208.2
293.15 K, x2 = 0.4995	1340.5	233.2
293.15 K, x2 = 0.5934	1353.9	257.3
293.15 K, x2 = 0.6847	1364.4	280.5
293.15 K, x2 = 0.7698	1372.6	301.6
293.15 K, x2 = 0.8671	1380.5	326.9
298.15 K, x2 = 0.0525	1180.5	119.5
298.15 K, x2 = 0.0981	1211.2	130.9
298.15 K, x2 = 0.2013	1261.1	157.6
298.15 K, x2 = 0.3063	1295.4	184.4
298.15 K, x2 = 0.4027	1318.2	209.1
298.15 K, x2 = 0.4995	1335.7	234.3
298.15 K, x2 = 0.5934	1349.2	258.5
298.15 K, x2 = 0.6847	1359.9	281.9
298.15 K, x2 = 0.7698	1368.2	303.3
298.15 K, x2 = 0.8671	1376.2	328.8
303.15 K, x2 = 0.0525	1174.3	120
303.15 K, x2 = 0.0981	1205.3	131.4
303.15 K, x2 = 0.2013	1255.7	158.3
303.15 K, x2 = 0.3063	1290.3	185.2
303.15 K, x2 = 0.4027	1313.3	210.1
303.15 K, x2 = 0.4995	1331	235.5
303.15 K, x2 = 0.5934	1344.7	259.9
303.15 K, x2 = 0.6847	1355.4	283.3
303.15 K, x2 = 0.7698	1363.8	305
303.15 K, x2 = 0.8671	1371.9	330.7
308.15 K, x2 = 0.0525	1168	120.4
308.15 K, x2 = 0.0981	1199.3	131.8
308.15 K, x2 = 0.2013	1250.2	159.1
308.15 K, x2 = 0.3063	1285.2	186.1
308.15 K, x2 = 0.4027	1308.4	211.1
308.15 K, x2 = 0.4995	1326.3	236.7
308.15 K, x2 = 0.5934	1340.1	261.3
308.15 K, x2 = 0.6847	1351	284.8
308.15 K, x2 = 0.7698	1359.4	306.7
308.15 K, x2 = 0.8671	1367.6	332.7
313.15 K, x2 = 0.0525	1161.7	121
313.15 K, x2 = 0.0981	1193.4	132.4
313.15 K, x2 = 0.2013	1244.8	160
313.15 K, x2 = 0.3063	1280.1	187
313.15 K, x2 = 0.4027	1303.6	212.1
313.15 K, x2 = 0.4995	1321.6	238
313.15 K, x2 = 0.5934	1335.5	262.7
313.15 K, x2 = 0.6847	1346.5	286.3
313.15 K, x2 = 0.7698	1355.1	308.5
313.15 K, x2 = 0.8671	1363.4	334.7
318.15 K, x2 = 0.0525	1155.4	121.4
318.15 K, x2 = 0.0981	1187.4	132.8
318.15 K, x2 = 0.2013	1239.3	160.8
318.15 K, x2 = 0.3063	1275	188
318.15 K, x2 = 0.4027	1298.7	213
318.15 K, x2 = 0.4995	1316.9	239.2
318.15 K, x2 = 0.5934	1331	264.2
318.15 K, x2 = 0.6847	1342.1	287.8
318.15 K, x2 = 0.7698	1350.7	310.3
318.15 K, x2 = 0.8671	1359.1	336.7

[3]
Details	excess molar enthalpy [kcal/mol]
x2 = 0.1234	-0.0301
x2 = 0.2533	-0.0457
x2 = 0.3774	-0.0468
x2 = 0.5026	-0.048
x2 = 0.6253	-0.0399
x2 = 0.7438	-0.0299
x2 = 0.8668	-0.0139
